The values below come from patent US12006332B2, “Aminopyrimidine derivatives as phosphatidylinositol phosphate kinase inhibitors” (HiberCell, Inc., priority 2019, dated 2024).

One test concerns the target T1, PIP4K2A (Homo sapiens, UniProt P48426).
T1 construct: made in house; host or cells: E. coli
T1 sequence (P48426 1-406): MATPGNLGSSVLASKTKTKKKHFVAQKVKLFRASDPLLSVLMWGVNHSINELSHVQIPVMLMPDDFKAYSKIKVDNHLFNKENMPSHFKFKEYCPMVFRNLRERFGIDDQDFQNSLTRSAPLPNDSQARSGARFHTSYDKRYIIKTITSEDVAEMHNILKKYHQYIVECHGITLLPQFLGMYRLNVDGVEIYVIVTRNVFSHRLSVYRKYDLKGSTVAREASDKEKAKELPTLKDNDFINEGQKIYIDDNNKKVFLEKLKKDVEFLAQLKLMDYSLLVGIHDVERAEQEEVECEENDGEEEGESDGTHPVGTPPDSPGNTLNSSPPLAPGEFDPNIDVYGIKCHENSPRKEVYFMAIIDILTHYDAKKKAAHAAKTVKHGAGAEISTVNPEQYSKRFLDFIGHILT
The experiment in a line: Kinase Assay-PIP4K2 A (ADP-Glo). The class given is biochemical. As to the method:
Dilution series of the compounds were prepared in DMSO at 100 times the final assay concentration (n1=n0/3 in 10 points). The compounds were further diluted to three times the assay concentration in assay buffer (20 mM MOPS pH 7.2, 25 mM magnesium chloride, 0.005% Tween 20). 6 μL of the diluted compounds were added to a 384 well assay plate followed by 9 μL of a mix consisting of 4 nM PIP4K2A (full length protein, SignalChem) and 100 μM PI(5)P diC8 (Tebu-Bio). Enzyme and compounds were pre-incubated at room temperature for 15 minutes.
Then 3 μL of a solution containing 60 μM ATP (Promega) in assay buffer was added to the wells containing compound and enzyme and mixing was performed by pipetting several times. The reaction was incubated at room temperature for 1 h. Then 18 μL of ADP-Glo™ Reagent (Promega) was added to stop the kinase reaction and deplete the unconsumed ATP, mixing was performed by pipetting several times. The plate was incubated at room temperature for 40 minutes before addition of 36 μL of Kinase Detection Reagent (Promega) to convert ADP to ATP and introduce luciferase and luciferin to detect ATP. The reaction was incubated at room temperature for 40 minutes before the luminescence was measured in a in a Victor 3V 1420 multilabel counter (Perkin Elmer).
Percent inhibition of the compounds as compared to dimethyl sulfoxide treated control samples was calculated. Compound concentration versus percent inhibition were fitted to generate IC50 values. […]

The target in a further test is T2, PIP4K2 B (Homo sapiens, UniProt P78356).
T2 construct: made in house; host or cells: E. coli
T2 sequence (P78356 1-416): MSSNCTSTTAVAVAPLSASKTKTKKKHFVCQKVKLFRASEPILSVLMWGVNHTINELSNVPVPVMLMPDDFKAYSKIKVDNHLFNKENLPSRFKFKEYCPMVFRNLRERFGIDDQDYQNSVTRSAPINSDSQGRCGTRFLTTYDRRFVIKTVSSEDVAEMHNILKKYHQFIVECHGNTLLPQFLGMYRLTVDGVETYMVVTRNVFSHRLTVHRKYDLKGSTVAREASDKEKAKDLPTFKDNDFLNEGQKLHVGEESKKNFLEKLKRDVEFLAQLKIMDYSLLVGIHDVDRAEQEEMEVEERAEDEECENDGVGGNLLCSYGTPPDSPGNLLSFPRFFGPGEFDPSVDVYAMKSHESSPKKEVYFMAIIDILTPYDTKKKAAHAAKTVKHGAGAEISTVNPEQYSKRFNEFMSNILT
The experiment in a line: Kinase Assay-PIP4K2 B (Transcreener FI). The class given is biochemical. The text has this:
GST tagged PIP4KtypeIIA and B enzymes were overexpressed in E. Coli and purified to >80% homogeneity. Phosphatidyl inositol-5-phosphate (PI5P, Cat. #850152, Avanti Polar Lipids Inc.) was used as the lipid substrate and phosphatidyl ethanolamine (DOPE 18:1, Cat. #850725, Avanti Polar Lipids Inc.) was used as the carrier lipid for assays. Ultrapure ATP and GTP was purchased from Bellbrooke Labs. ADP Glo reagents were obtained from Promega. Transcreener FI reagent was obtained from Bellbrooke labs.
• 1. HEPES buffer mix: 200 mM HEPES pH 7.4, 50 mM MgCl2, 0.05% v/v triton X 100 • 2. HNE buffer: 20 mM HEPES, pH 7.4, 100 mM NaCl, 0.5 mM EGTA • 3. H:E buffer: 30 mM HEPES, pH 7.4, 1 mM EGTA
GST-tagged PIP4KtypeIIB (3.4 μl, 2.77 mg/mL) was diluted to 5 mL using HNE buffer to yield 5× enzyme stock (25 nM)
Lipid Preparation: In a 10 mL pyrex glass vial, […] were suspended in 2.5 mL of HEPES buffer mix and 2.5 mL of H:E buffer. The contents were mixed and sonicated for 3 min to yield a translucent lipid stock.
Compound Preparation: Compounds were stored as 5 mM stocks in neat DMSO as room temperature in glass vials. 5 mM stocks were diluted to 2 mM and then serially diluted (3×) in neat DMSO in 96 well polypropylene plates. From the serially diluted stocks, 3 μL was delivered into 250 μL of 25% DMSO (in water) to generate 5× compound stocks. Typically, the highest compound conc. was 24 μM.
The assay volume was kept at 25 μL. To each well of the reaction plate, 10 μL of lipid stock (1:1 ratio PI5P:DOPE) was delivered. This was followed by the addition of 5 μL of compound in 25% DMSO. Then, to each well, 5 μL of 25 nM (5×) typeIIB enzyme was delivered. The contents were mixed well and incubated for 1 h at 27° C. After 1 h, reaction was initiated by adding 5 μL of 500 μM GTP and the contents were mixed well with a multi-channel pipetteman. The final concentration of the reagents are as follows: 50 mM HEPES, pH 7.3, 10 mM MgCl2, 20 mM NaCl, 0.01% v/v triton-X100, 5% DMSO, 100 μM GTP, 80 μM (2 μg) PI5P, 2 μg DOPE, and 5 nM PIP4KIIB Typically, the highest conc. of compounds was 4.8 μM and the lowest conc. was 0.
After 2 h, the reaction was quenched by adding 25 μL of transcreener FI reagent. The contents were incubated at rt for 1 h and the Fluorescence (Ex: 584 Em: 623) was read using Molecular Devices Paradigm plate reader. […] The blanks were averaged and subtracted from all other wells. Using a calibration curve, RFU was converted to μM GDP (product). IC50 was calculated by plotting the residual activity (expressed as % No inhibitor control) vs. log [Inh. conc.].

Another test concerns MOLM-16. The experiment in a line: MOLM-16 EC50 assay. The settings on record: MOLM16. The class given is cell-based.

For `O=C(O)CNc1nc(Nc2cnc3c(c2)N2C(=O)CC[C@H]2CO3)ncc1-c1ccc(N2CCCC2=O)cc1` [Compound 1, 2-[(2-{[(6S)-3-oxo-8-oxa-2,10-diazatricyclo[7.4.0.0^2,6]trideca-1(9),10,12-trien-12-yl]amino}-5-[4-(2-oxopyrrolidin-1-yl)phenyl]pyrimidin-4-yl)amino]acetic acid], the IC50 at PIP4K2A and at PIP4K2 B was not above 1 nM each time. In the test on MOLM-16, this compound displayed an EC50 of more than 1000 nM.

As to `CN(c1nc(Nc2cnc3c(c2)N2C(=O)CC[C@H]2CO3)ncc1-c1ccc(N2CCCC2=O)cc1)[C@H]1CCOC1` [Compound 2, (6S)-12-[(4-{methyl[(3S)-oxolan-3-yl]amino}-5-[4-(2-oxopyrrolidin-1-yl)phenyl]pyrimidin-2-yl)amino]-8-oxa-2,10-diazatricyclo[7.4.0.0^2,6]trideca-1(13),9,11-trien-3-one], the IC50 against PIP4K2A is not above 1 nM; against PIP4K2 B, 1 to 10 nM. Besides, in the test on MOLM-16, the EC50 is more than 1000 nM.

Turning to `CN(c1nc(Nc2cnc3c(c2)N2C(=O)CC[C@H]2CO3)ncc1-c1ccc(N2CCCC2=O)cc1)C1CCOC1` (stereo partly drawn) [Compound 3, (6S)-12-({4-[methyl(oxolan-3-yl)amino]-5-[4-(2-oxopyrrolidin-1-yl)phenyl]pyrimidin-2-yl}amino)-8-oxa-2,10-diazatricyclo[7.4.0.0^2,6]trideca-1(13),9,11-trien-3-one], the IC50 on PIP4K2A was not above 1 nM; against PIP4K2 B it was 1 to 10 nM. Further, the EC50 in the test on MOLM-16 was more than 1000 nM.

On to `CN(c1nc(Nc2cnc3c(c2)N2C(=O)CC[C@H]2CO3)ncc1-c1ccc(N2CCCC2=O)cc1)[C@H]1C[C@H](O)C1` [Compound 4, (6S)-12-[(4-{methyl[(1r,3r)-3-hydroxycyclobutyl]amino}-5-[4-(2-oxopyrrolidin-1-yl)phenyl]pyrimidin-2-yl)amino]-8-oxa-2,10-diazatricyclo[7.4.0.0^2,6]trideca-1(13),9,11-trien-3-one], for which the IC50 on PIP4K2A and against PIP4K2 B was 1 to 10 nM throughout. Besides, in the test with MOLM-16, the EC50 was more than 1000 nM.

In the case of `COc1nc(Nc2cnc3c(c2)N(C(=O)OCCN(C)C)CCO3)ncc1-c1ccc(N2CCCC2=O)cc1` [Compound 5, 2-(dimethylamino)ethyl 7-({4-methoxy-5-[4-(2-oxopyrrolidin-1-yl)phenyl]pyrimidin-2-yl}amino)-1H,2H,3H-pyrido[2,3-b][1,4]oxazine-1-carboxylate], the IC50 against PIP4K2A and against PIP4K2 B was 1 to 10 nM throughout. In the test with MOLM-16, this compound gave an EC50 of 10 to 100 nM.

For `O=C1CCCN1c1ccc(-c2cnc(Nc3cnc4c(c3)N3C(=O)CC[C@H]3CO4)nc2OCCN2CCOCC2)cc1` [Compound 6, (6S)-12-({4-[2-(morpholin-4-yl)ethoxy]-5-[4-(2-oxopyrrolidin-1-yl)phenyl]pyrimidin-2-yl}amino)-8-oxa-2,10-diazatricyclo[7.4.0.0^2,6]trideca-1(9),10,12-trien-3-one], the IC50 against PIP4K2A and at PIP4K2 B was 1 to 10 nM each time. The compound further came in with an EC50 with MOLM-16 of 10 to 100 nM.

With `COc1nc(Nc2cncc(N3CCC(N(C)C)CC3)c2)ncc1-c1ccc(-c2nnccc2C)cc1` [Compound 17, N-{5-[4-(dimethylamino)piperidin-1-yl]pyridin-3-yl}-4-methoxy-5-[4-(4-methylpyridazin-3-yl)phenyl]pyrimidin-2-amine], the IC50 on PIP4K2A and at PIP4K2 B was 10 to 100 nM in each case.

On to `CCN(CC)CCOC(=O)N1CCOc2ncc(Nc3ncc(-c4ccc(N5C(=O)CC[C@H]5C)cc4)cn3)cc21` [Compound 22, 2-(diethylamino)ethyl 7-[(5-{4-[(2R)-2-methyl-5-oxopyrrolidin-1-yl]phenyl}pyrimidin-2-yl)amino]-1H,2H,3H-pyrido[2,3-b][1,4]oxazine-1-carboxylate], for which the IC50 against PIP4K2A and at PIP4K2 B was 10 to 100 nM throughout.

With `CCN(CC)CCOC(=O)N1CCOc2ncc(Nc3ncc(-c4ccc(N5CCCC5=O)cc4)cn3)cc21` [Compound 23, 2-(diethylamino)ethyl 7-({5-[4-(2-oxopyrrolidin-1-yl)phenyl]pyrimidin-2-yl}amino)-1H,2H,3H-pyrido[2,3-b][1,4]oxazine-1-carboxylate], the IC50 against PIP4K2A and on PIP4K2 B was 10 to 100 nM each time.

On to `CCN(CC)CCN(C)C(=O)N1CCOc2ncc(Nc3ncc(-c4ccc(N5C(=O)CC[C@H]5C)cc4)c(OC)n3)cc21` [Compound 24, N-[2-(diethylamino)ethyl]-7-[(4-methoxy-5-{4-[(2R)-2-methyl-5-oxopyrrolidin-1-yl]phenyl}pyrimidin-2-yl)amino]-N-methyl-1H,2H,3H-pyrido[2,3-b][1,4]oxazine-1-carboxamide], for which the IC50 against PIP4K2A was in the range of 100 to 1000 nM; against PIP4K2 B, 10 to 100 nM.

As to `CCN(CC)CCN(C)C(=O)N1CCOc2ncc(Nc3ncc(-c4ccc(N5C(=O)CC[C@H]5C)cc4)cn3)cc21` [Compound 25, N-[2-(diethylamino)ethyl]-N-methyl-7-[(5-{4-[(2R)-2-methyl-5-oxopyrrolidin-1-yl]phenyl}pyrimidin-2-yl)amino]-1H,2H,3H-pyrido[2,3-b][1,4]oxazine-1-carboxamide], the IC50 on PIP4K2A and on PIP4K2 B was 100 to 1000 nM in each case.

Take `CP(C)(=O)c1ccc(-c2ccc(Nc3cnc4c(c3)N3C(=O)CC[C@H]3CO4)nc2)cc1` [Compound 27, (6S)-12-({5-[4-(dimethylphosphoryl)phenyl]pyridin-2-yl}amino)-8-oxa-2,10-diazatricyclo[7.4.0.0^2,6]trideca-1(9),10,12-trien-3-one]: the IC50 against PIP4K2A and against PIP4K2 B was more than 1000 nM each time.
